The values below come from patent US8410292B2, “Epoxy-guaiane derivatives and treatment of cancer” (The United States of America, as represented by the …, priority 2008, dated 2013).

In test [1] the test system is renal cancer cell lines. Nature of the test: NCI 60-cell line protocol, summary over renal lines. Format: cell-based, human. As for the experimental part:
(§1) Samples are tested in the standard National Cancer Institute 60-cell line protocol. First, they are tested against all 60 cell lines in a single final concentration of 10 micromolar. Then, they are separately tested in five 10-fold dilutions. The drug exposure is two days, with an SRB endpoint.

Test [2] concerns TK-10. In words: NCI 60-cell line protocol, TK-10. The class given is cell-based, human. Conditions: two days exposure, SRB endpoint. As for the experimental part: as §1
Test [3] has as its system SN12C. In words: NCI 60-cell line protocol, SN12C. The class given is cell-based, human. Conditions: two days exposure, SRB endpoint. How it is done: as §1
The test system of test [4] is UO-31. Nature of the test: NCI 60-cell line protocol, UO-31. Conditions: two days exposure, SRB endpoint. The class given is cell-based, human. As for the experimental part: as §1
The subject of test [5] is ACHN. Nature of the test: NCI 60-cell line protocol, ACHN. Conditions: two days exposure, SRB endpoint. The class given is cell-based, human. How it is done: as §1
In test [6] the test system is CAKI-1. In words: NCI 60-cell line protocol, CAKI-1. Format: cell-based, human. Conditions: two days exposure, SRB endpoint. How it is done: as §1
Test [7] deals with RXF-393. Nature of the test: NCI 60-cell line protocol, RXF-393. The class given is cell-based, human. Conditions: two days exposure, SRB endpoint. How it is done: as §1
Test [8] relates to A498. Nature of the test: NCI 60-cell line protocol, A498. Format: cell-based, human. Conditions: two days exposure, SRB endpoint. As for the experimental part: as §1
Test [9] deals with SF-295. Nature of the test: 2-day cell growth assay, SF-295. Format: cell-based, human. How it is done: (§2) The primary endpoints of these assays are the formazan XTT, or alternatively, and in preference, the protein stain sulforhodamine B. All samples are tested in […] 10-fold dilutions with no drug and no-cell controls on each microtiter plate. IC50 values are calculated using SOFTMAX™ software as supplied by the manufacturer of the microplate reader.

The subject of test [10] is UO-31. In words: 2-day cell growth assay, UO-31. The class given is cell-based, human. How it is done: as §2
For test [11], the system named is all 60 cell lines. Nature of the test: NCI 60-cell line protocol, all 60 lines. Format: cell-based, human. Particulars: mean over all 60 cell lines, read-out: All 60 mean GI-50. How it is done: as §1
In test [12] the test system is 786-0. In words: NCI 60-cell line protocol, 786-0. Format: cell-based, human. Particulars: two days exposure, SRB endpoint. How it is done:
as §1

Test [13] has as its system renal cancer cell line A498. In words: 2-cell assay. The class given is cell-based. As for the experimental part:
A sample ([…]) of englerin B was stirred in pyridine (0.25 mL) and acetic anhydride (0.25 mL) overnight at room temperature. The solvents were evaporated under vacuum and the product extracted in dichloromethane. The crude product was purified on pTLC (Si gel 60 F254; 2% MeOH/DCM) to give englerin B monoacetate (2.0 mg, 95%).

[14] abbreviates: median over renal cell lines, read-out: Median GI50.
Where [15] appears, read: Homo sapiens, SF-295, 48 h, insensitive CNS tumor line, read-out: SF-295 IC50.
Where [16] appears, read: Homo sapiens, UO-31, 48 h, 2-day cell growth assay, sensitive renal line; read-out: UO-31 IC50.
Setting [17] is: ratio of IC50 SF-295 to IC50 UO-31.
The mark [18] stands for this setting: geometric mean over renal cell lines, read-out: Geometric Mean GI50.
Setting [19] is: mean over renal cell lines, read-out: Mean GI50.
[20] abbreviates: insensitive CNS tumor line, read-out: SF-295 IC50.
Setting [21] is: 2-day cell growth assay, sensitive renal line; read-out: UO-31 IC50.

Read-outs that look alike come from different tables or passages of the source.

As for `CC1CCC2C1C(OC(=O)C(Cl)C(Cl)c1ccccc1)C1(C(C)C)CC(OC(=O)CO)C2(C)O1` (single isomer, unassigned) [2′,3′-Dichlorodihydroenglerin A (epimer 1)], the GI50 is 0.94 µM in test [1] (Homo sapiens, 60 cell, geometric mean over renal cell lines, read-out: Geometric Mean GI50); 4.09 µM in test [1] (Homo sapiens, 60 cell, mean over renal cell lines, read-out: Mean GI50); 0.68 µM in [1] (setting [14]); 18 µM in test [2] (Homo sapiens, TK-10, 48 h); 1 µM in test [3] (Homo sapiens, SN12C, 48 h); 0.39 µM in [4] (Homo sapiens, UO-31, 48 h). Further, the GI50 in [5] came to 0.14 µM; in test [6] (Homo sapiens, CAKI-1, 48 h) it was 0.42 µM; in test [7] it was 0.93 µM; in test [8], 0.14 µM; in test [11] (Homo sapiens, 60 cell), 8.3 µM; in test [12] (Homo sapiens, 786-0, 48 h), 12 µM. Further, the IC50 (in general, the concentration that gives 50% inhibition) in test [9] (setting [15]) is 90 µM; in test [10] (setting [16]) it was 1.2 µM. The “Selectivity SF-295/UO-31” value in [10] (setting [17]) amounted to 75.
As to `CC1CCC2C1C(OC(=O)C(Cl)C(Cl)c1ccccc1)C1(C(C)C)CC(OC(=O)CO)C2(C)O1` (single isomer, unassigned) [2′,3′-Dichlorodihydroenglerin A (epimer 2)], the GI50 turned out to be 0.72 µM in test [1] (setting [18]); 5.55 µM in test [1] (setting [19]); 0.32 µM in [1] (setting [14]); 25 µM in [2]; 1 µM in test [3]; 0.32 µM in test [5]. Further, the GI50 in test [6] is 0.32 µM; in test [7] it was 0.32 µM; in [8], 0.049 µM; in test [11], 11.7 µM; in test [12] it was 12 µM. For the same compound, the IC50 stood at 60 µM in test [9] (setting [20]) and 0.75 µM in test [10] (setting [21]). Further, in [10] (setting [17]), the “Selectivity SF-295/UO-31” value turned out to be 80.
With `CC1CCC2C1C(OC(=O)C(Cl)C(O)c1ccccc1)C1(C(C)C)CC(OC(=O)CO)C2(C)O1` (single isomer, unassigned) [2′-Chloro,3′-hydroxydihydroenglerin (epimer 1), 2′-Chloro,3′-hydroxydihydroenglerin A (epimer 1)], the GI50 in test [1] (setting [18]) stood at 0.7 µM; in test [1] (setting [19]), 2.58 µM; in test [1] (setting [14]) it was 0.49 µM; in test [2] (Homo sapiens, TK-10, 48 h) it was 17 µM; in test [3] it was 0.63 µM; in test [4], 0.25 µM. Moreover, the GI50 in [5] worked out at 0.32 µM; in test [6], 0.46 µM; in [7] (Homo sapiens, RXF 393, 48 h), 0.51 µM; in test [8], 0.18 µM; in [11] (Homo sapiens, 60 cell), 6.9 µM; in [12] it was 1.7 µM. The IC50 in test [9] (read-out: SF-295 IC50, insensitive CNS tumor line) was over 100 µM; in [10] (read-out: UO-31 IC50; 2-day cell growth assay, sensitive renal line), 0.96 µM. For the same compound, the “Selectivity SF-295/UO-31” value in [10] (setting [17]) is on record as over 104.
As for `CC1CCC2C1C(OC(=O)C(Cl)C(O)c1ccccc1)C1(C(C)C)CC(OC(=O)CO)C2(C)O1` (single isomer, unassigned) [2′-Chloro,3′-hydroxydihydroenglerin (epimer 2), 2′-Chloro,3′-hydroxydihydroenglerin A (epimer 2)], the GI50 is 3.13 µM in [1] (setting [18]); 7.07 µM in [1] (setting [19]); 3.32 µM in [1] (setting [14]); 27 µM in [2]; 4.7 µM in test [3]; 1.9 µM in test [4]. In addition, the GI50 in [5] is 1.38 µM; in [6], 9.3 µM; in test [7] it was 0.39 µM; in [8], 0.66 µM; in test [11], 12 µM; in test [12] it was 11 µM. For the same compound, the IC50 in test [9] (setting [20]) came out at 92 µM; in [10] (setting [21]), 8.7 µM. In addition, the “Selectivity SF-295/UO-31” value in test [10] (setting [17]) is reported as 11.
For the compound `CC1CCC2C1C(OC(=O)C(Cl)C(O)c1ccccc1)C1(C(C)C)CC(OC(=O)CO)C2(C)O1` (single isomer, unassigned) [2′-Chloro,3′-hydroxydihydroenglerin (epimer 3), 2′-Chloro,3′-hydroxydihydroenglerin A (epimer 3)], the IC50 is 42 µM in test [9] (setting [20]) and 0.41 µM in test [10] (setting [21]). Besides, in test [10] (setting [17]), the “Selectivity SF-295/UO-31” value worked out at 102.
In the same order, the values of `CC1CCC2C1C(OC(=O)C(Cl)C(O)c1ccccc1)C1(C(C)C)CC(OC(=O)CO)C2(C)O1` (single isomer, unassigned) [2′-Chloro,3′-hydroxydihydroenglerin (epimer 4), 2′-Chloro,3′-hydroxydihydroenglerin A (epimer 4)] are 20 µM, 16 µM and 1.25.
Turning to `CCOC(c1ccccc1)C(Cl)C(=O)OC1C2C(C)CCC2C2(C)OC1(C(C)C)CC2OC(=O)CO` (stereo not drawn) [2′-Chloro,3′-ethoxydihydroenglerin A], the IC50 turned out to be 35 µM in test [9] (setting [15]) and 18 µM in test [10] (setting [16]). Moreover, the “Selectivity SF-295/UO-31” value in test [10] (setting [17]) turned out to be 1.94.
`CC(C)[C@@]12C[C@@H](OC(=O)CO)[C@@](C)(O1)[C@@H]1CC[C@@H](C)[C@H]1[C@@H]2OC(=O)/C(Cl)=C/c1ccccc1` [2′-Chloroenglerin A]: the GI50 stood at 0.21 µM in [1] (setting [18]); 3.96 µM in test [1] (setting [19]); 0.04 µM in test [1] (setting [14]); 21 µM in test [2]; 0.56 µM in test [3]; 0.035 µM in [4]. Moreover, the GI50 in test [5] came to 0.041 µM; in [6], 0.035 µM; in test [7], 0.019 µM; in test [8] it was 0.028 µM; in [11], 5.6 µM; in [12], 10 µM. Further, the figures for the IC50 in [9] (setting [20]) and in test [10] (setting [21]) were 72 µM and 0.92 µM, respectively. Further, the “Selectivity SF-295/UO-31” value in test [10] (setting [17]) was determined as 78.
With englerin B monoacetate, the “selectivity against renal cancer cell line A498” value in test [13] was about 400 fold.
